Experimental data: patent US10976310B2, “Ligand identification by co-fractionation” (MAX-PLANCK-GESELLSCHAFT ZUR FÖRDERUNG DER WISSENSCHAFTEN …, priority 2016, dated 2021)

Target: T1, Rbp47b-TAP protein (Arabidopsis thaliana, UniProt Q0WW84)
T1 construct: expressed in transfected cells; host or cells: Arabidopsis cell suspension culture, Agrobacterium-transformed
T1 sequence (Q0WW84 1-435): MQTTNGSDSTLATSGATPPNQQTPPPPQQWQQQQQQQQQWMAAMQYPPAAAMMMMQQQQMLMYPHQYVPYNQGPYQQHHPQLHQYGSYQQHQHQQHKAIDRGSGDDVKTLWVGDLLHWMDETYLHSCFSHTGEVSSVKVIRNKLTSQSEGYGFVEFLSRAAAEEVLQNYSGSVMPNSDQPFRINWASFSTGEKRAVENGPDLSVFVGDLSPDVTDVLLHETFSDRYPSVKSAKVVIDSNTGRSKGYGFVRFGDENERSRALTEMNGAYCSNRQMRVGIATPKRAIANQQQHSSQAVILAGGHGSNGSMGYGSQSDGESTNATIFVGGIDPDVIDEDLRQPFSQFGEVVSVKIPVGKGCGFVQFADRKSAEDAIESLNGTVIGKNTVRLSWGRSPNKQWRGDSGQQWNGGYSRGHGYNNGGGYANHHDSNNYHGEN
Experiment: Cellular thermal shift assay (CETSA) in native Arabidopsis lysate
Format: binding
Conditions: read-out: change of Rbp47b melting temperature (thermal destabilization)
Experimental: To this end we set out to identify the binding protein partners of 2′,3′-cAMP by applying affinity purification (AP) using agarose beads, with 2′,3′-cAMP linked via the NH2 group of the purine ring. After incubation of the beads with total soluble-protein extracts from A. thaliana cell suspension cultures (cf. Materials and Methods) sequential washings with ADP, GDP, 5′-AMP, and finally 2′,3′-cAMP were performed, and the proteins eluting in the different washings were analyzed by LC-MS/MS proteomics. Proteins eluting from the agarose beads exclusively with 2′,3′-cAMP but absent in any of the other eluents (ADP, GDP, or 5′-AMP; FIG. 10A) were defined as 2′,3′-cAMP-binding. Applying this stringent criterion only one protein remained: the polyadenylate-binding protein Rbp47b. We reasoned that the putative formation of Rbp47b-2′,3′-cAMP complexes in vivo should be reflected by largely overlapping elution profiles of the two components in a size-exclusion experiment (SEC), as was indeed the case (FIG. 10B). To obtain further and independent evidence for the formation of a complex between Rbp47b and 2′,3′-cAMP, we performed a cellular thermal shift assay (CETSA) (Franken et al. (2015) Thermal proteome profiling for unbiased identification of direct and indirect drug targets using multiplexed quantitative mass spectrometry. Nat Protoc 10: 1567-1593). CESTA is a method used in the drug research to verify ligand-receptor binding in the native cellular lysate, based on the observation that presence of the ligand changes thermal stability of the protein receptor. Herein, we adapted the protocol to be suitable for the plant material and an endogenous […] metabolite. We used Arabidopsis cells expressing a tagged version of the Rbp47b, so that Rbp47b level could be easily detected with the anti-tag antibody. […] Taken together, three independent experimental approaches (AP, SEC, and CETSA) provide evidence for the binding of 2′,3′-cAMP to Rbp47b in the native Arabidopsis lysate. […]

**Q.** Which ΔTm at 10 µM does the source give for `Nc1ncnc2c1ncn2[C@@H]1O[C@H](CO)[C@H]2OP(=O)(O)O[C@H]21` [2′,3′-cAMP] here?
**A.** 2.4 °C

**Q.** What about the ΔTm at 100 µM of the same molecule?
**A.** 5.1 °C
